# Data taken from patent EP2768830B1, “APOPTOSIS-INDUCING AGENTS FOR THE TREATMENT OF CANCER AND IMMUNE AND AUTOIMMUNE DISEASES” (AbbVie Inc., priority 2011, dated 2013).
# Key:
# GST-Bcl-2 = molecular target: T1, GST-Bcl-2 (Homo sapiens, UniProt P10415); settings: F-Bak probe, read-out: Ki, competition with F-Bak for the Bcl-2 binding site using the TR-FRET binding assay
# T1 construct: made in house
# [1] = test system: mouse FL5.12 cells transfected with Bcl-XL; assay: FL5.12 cellular assay (cell viability, CellTiter-Glo); format: cell-based; settings: Mus musculus; FL5.12 cells transfected with Bcl-XL, IL-3-depleted, 3% FBS assay media, 24 hours, CellTiter-Glo; read-out: FL5.12 Bcl-xL, - IL3, EC 50;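 note: each EC50 determination derived from duplicate measurements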
# Description: For assaying the compound activity, the cells were exchanged into an IL-3-depleted deprivation media, which was identical to the growth media except for the absence of FBS and WEHI-3B conditional media, for 2 days. Then the cells were exchanged to 3% FBS assay media (RPMI with 2 mM glutamine, 1% 100 mM sodium pyruvate, 2% 1 M HEPES, 4 µL/L of β-mercaptoethanol, 1% penicillin-streptomycin, 3% FBS). Compounds in series dilutions were added, and the cells were cultured for 24 hours. Compounds in series dilutions were added, and the cells were cultured for 24 hours. Cell viability was assayed using the CellTiter-Glo assay (Promega Corp., Madison, WI) according to the manufacturer instructions. Individual determinations were the result of duplicate values.
# GST-Bcl-xL = GST-Bcl-xL (Homo sapiens, UniProt Q07817); settings: read-out: TR-FRET binding Bcl-xL Ki
# GST-Bcl-xL, sequence (Q07817 whole entry): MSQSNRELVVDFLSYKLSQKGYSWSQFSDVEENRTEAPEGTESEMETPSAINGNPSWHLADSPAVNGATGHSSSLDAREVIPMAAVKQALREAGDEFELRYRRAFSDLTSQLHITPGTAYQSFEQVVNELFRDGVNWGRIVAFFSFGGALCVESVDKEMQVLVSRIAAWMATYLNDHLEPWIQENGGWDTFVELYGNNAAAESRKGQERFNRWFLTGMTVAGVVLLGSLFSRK
# T1 sequence (P10415 whole entry): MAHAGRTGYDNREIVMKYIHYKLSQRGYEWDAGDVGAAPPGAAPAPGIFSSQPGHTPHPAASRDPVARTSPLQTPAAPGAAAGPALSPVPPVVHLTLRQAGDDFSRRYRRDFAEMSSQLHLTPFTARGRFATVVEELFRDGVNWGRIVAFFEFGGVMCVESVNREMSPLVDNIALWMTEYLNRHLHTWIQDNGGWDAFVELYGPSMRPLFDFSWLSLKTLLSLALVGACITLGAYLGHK
smiles,measurement,setting,value
"Cc1c(-c2ccc(N3CCc4cccc(C(=O)Nc5nc6ccccc6s5)c4C3)nc2C(=O)O)cnn1Cc1ccccc1 [Example 20, 6-[8-(1,3-benzothiazol-2-ylcarbamoyl)-3,4-dihydroisoquinolin-2(1H)-yl]-3-(1-benzyl-5-methyl-1H-pyrazol-4-yl)pyridine-2-carboxylic acid]",Ki,GST-Bcl-2,70 nM
same,EC50,[1],13 nM
same,Ki,GST-Bcl-xL,2 nM
